Reference: patent US20080140138A1, “Inhibition of inflammatory cytokine production by stimulation of brain muscarinic receptors” (priority 2002, published 2008)

Assays:
alpha 1 adrenergic = assay: NovaScreen receptor binding panel, CNI-1493 at 10 μM; settings: average of duplicate tubes
Description: (§1) Method of determining CNI-1493 receptor binding. CNI-1493 was tested at a single concentration (10 μM) in a panel of receptor binding assays by NovaScreen Biosciences Corporation (Hanover, Md.). Values were expressed as the percent inhibition of specific binding, and represented the average of duplicate tubes. Method of stereotactic intracerebroventricular injections. A rat model of intracerebroventricular (i.c.v.) injections was established in order to be able to directly deliver pharmacological agents into the brain of rats. This was necessary in order to separate drug effects on peripheral inflammation that occurred through central versus peripheral mechanisms. Lewis rats were anaesthetized with urethane (1 g/kg, i.p.) and xylazine (15 mg/rat, i.m. (intramuscular)). Rats were then placed in a stereotactic head frame (Stoelting, Wood Dale, Ill., USA). The incisor bar was adjusted until the plane defined by the lambda and bregma was parallel to the base plate. For i.c.v. injections the needle of a Hamilton syringe (25 μl) was positioned stereotactically above the lateral ventricle (0.2 mm and 1.5 mm posterior to bregma, 3.2 mm below the dura.) Solutions of the drugs tested were prepared in sterile endotoxin-free water, at the specified concentrations, and a 10-μl injection/rat was administered over 2 min, 1 h prior to either carrageenan injection, or to LPS.

epidermal growth factor = epidermal growth factor (Homo sapiens, UniProt P00533); assay: NovaScreen receptor binding panel; settings: 10 μM; <50% = marginal or no activity
Description: as §1

site 2 sodium = assay: NovaScreen receptor binding panel; settings: 10 μM; <50% = marginal or no activity
Description: as §1

leukotriene D4 and LTD4 = assay: NovaScreen receptor binding panel; settings: 10 μM; <50% = marginal or no activity
Description: as §1

[1] = test system: vasoactive intestinal peptide; assay: NovaScreen receptor binding panel; settings: 10 μM, average of duplicate tubes
Description: as §1

NK1 neurokinin = NK1 neurokinin (Homo sapiens, UniProt P25103); assay: NovaScreen receptor binding panel; settings: 10 μM; <50% = marginal or no activity
Description: as §1

[2] = test system: voltage-sensitive potassium channel; assay: NovaScreen receptor binding panel; settings: 10 μM, average of duplicate tubes
Description: as §1

dopamine = assay: NovaScreen receptor binding panel; settings: 10 μM; <50% = marginal or no activity
Description: as §1

vasopressin 1 = vasopressin 1 (Homo sapiens, UniProt P37288); assay: NovaScreen receptor binding panel; settings: 10 μM; <50% = marginal or no activity
Description: as §1

site 1 sodium = assay: NovaScreen receptor binding panel; settings: 10 μM; <50% = marginal or no activity
Description: as §1

Type L calcium channel = assay: NovaScreen receptor binding panel; settings: 10 μM; <50% = marginal or no activity
Description: as §1

beta adrenergic = assay: NovaScreen receptor binding panel; settings: 10 μM; <50% = marginal or no activity
Description: as §1

Type N calcium channel = Type N calcium channel (Homo sapiens, UniProt Q00975); assay: NovaScreen receptor binding panel; settings: 10 μM, average of duplicate tubes
Type N calcium channel, sequence (P54289 25-946): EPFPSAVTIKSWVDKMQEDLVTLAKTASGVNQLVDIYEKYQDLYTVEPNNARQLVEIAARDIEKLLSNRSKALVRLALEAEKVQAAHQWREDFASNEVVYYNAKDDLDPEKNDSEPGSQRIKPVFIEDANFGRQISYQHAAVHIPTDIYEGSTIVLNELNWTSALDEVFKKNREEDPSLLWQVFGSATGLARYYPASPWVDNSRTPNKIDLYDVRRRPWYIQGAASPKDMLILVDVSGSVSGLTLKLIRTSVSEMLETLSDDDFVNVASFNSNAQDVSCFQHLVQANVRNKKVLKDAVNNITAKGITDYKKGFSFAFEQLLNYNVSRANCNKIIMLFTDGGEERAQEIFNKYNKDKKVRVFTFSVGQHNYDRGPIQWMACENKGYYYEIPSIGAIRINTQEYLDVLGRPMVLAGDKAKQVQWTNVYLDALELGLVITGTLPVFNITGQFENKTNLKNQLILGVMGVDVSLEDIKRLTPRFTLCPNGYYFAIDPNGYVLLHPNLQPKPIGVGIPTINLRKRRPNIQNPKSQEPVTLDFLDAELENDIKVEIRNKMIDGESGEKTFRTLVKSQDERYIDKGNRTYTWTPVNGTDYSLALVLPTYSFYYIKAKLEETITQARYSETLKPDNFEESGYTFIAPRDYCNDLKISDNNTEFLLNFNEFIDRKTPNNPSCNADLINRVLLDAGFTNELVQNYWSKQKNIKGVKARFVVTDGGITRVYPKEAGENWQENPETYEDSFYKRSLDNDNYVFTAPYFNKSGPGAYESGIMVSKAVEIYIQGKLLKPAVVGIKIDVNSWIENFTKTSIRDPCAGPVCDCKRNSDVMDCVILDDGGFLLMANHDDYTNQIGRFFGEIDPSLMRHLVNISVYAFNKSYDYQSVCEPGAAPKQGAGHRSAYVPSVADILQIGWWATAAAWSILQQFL
Type N calcium channel, sequence (Q00975 whole entry): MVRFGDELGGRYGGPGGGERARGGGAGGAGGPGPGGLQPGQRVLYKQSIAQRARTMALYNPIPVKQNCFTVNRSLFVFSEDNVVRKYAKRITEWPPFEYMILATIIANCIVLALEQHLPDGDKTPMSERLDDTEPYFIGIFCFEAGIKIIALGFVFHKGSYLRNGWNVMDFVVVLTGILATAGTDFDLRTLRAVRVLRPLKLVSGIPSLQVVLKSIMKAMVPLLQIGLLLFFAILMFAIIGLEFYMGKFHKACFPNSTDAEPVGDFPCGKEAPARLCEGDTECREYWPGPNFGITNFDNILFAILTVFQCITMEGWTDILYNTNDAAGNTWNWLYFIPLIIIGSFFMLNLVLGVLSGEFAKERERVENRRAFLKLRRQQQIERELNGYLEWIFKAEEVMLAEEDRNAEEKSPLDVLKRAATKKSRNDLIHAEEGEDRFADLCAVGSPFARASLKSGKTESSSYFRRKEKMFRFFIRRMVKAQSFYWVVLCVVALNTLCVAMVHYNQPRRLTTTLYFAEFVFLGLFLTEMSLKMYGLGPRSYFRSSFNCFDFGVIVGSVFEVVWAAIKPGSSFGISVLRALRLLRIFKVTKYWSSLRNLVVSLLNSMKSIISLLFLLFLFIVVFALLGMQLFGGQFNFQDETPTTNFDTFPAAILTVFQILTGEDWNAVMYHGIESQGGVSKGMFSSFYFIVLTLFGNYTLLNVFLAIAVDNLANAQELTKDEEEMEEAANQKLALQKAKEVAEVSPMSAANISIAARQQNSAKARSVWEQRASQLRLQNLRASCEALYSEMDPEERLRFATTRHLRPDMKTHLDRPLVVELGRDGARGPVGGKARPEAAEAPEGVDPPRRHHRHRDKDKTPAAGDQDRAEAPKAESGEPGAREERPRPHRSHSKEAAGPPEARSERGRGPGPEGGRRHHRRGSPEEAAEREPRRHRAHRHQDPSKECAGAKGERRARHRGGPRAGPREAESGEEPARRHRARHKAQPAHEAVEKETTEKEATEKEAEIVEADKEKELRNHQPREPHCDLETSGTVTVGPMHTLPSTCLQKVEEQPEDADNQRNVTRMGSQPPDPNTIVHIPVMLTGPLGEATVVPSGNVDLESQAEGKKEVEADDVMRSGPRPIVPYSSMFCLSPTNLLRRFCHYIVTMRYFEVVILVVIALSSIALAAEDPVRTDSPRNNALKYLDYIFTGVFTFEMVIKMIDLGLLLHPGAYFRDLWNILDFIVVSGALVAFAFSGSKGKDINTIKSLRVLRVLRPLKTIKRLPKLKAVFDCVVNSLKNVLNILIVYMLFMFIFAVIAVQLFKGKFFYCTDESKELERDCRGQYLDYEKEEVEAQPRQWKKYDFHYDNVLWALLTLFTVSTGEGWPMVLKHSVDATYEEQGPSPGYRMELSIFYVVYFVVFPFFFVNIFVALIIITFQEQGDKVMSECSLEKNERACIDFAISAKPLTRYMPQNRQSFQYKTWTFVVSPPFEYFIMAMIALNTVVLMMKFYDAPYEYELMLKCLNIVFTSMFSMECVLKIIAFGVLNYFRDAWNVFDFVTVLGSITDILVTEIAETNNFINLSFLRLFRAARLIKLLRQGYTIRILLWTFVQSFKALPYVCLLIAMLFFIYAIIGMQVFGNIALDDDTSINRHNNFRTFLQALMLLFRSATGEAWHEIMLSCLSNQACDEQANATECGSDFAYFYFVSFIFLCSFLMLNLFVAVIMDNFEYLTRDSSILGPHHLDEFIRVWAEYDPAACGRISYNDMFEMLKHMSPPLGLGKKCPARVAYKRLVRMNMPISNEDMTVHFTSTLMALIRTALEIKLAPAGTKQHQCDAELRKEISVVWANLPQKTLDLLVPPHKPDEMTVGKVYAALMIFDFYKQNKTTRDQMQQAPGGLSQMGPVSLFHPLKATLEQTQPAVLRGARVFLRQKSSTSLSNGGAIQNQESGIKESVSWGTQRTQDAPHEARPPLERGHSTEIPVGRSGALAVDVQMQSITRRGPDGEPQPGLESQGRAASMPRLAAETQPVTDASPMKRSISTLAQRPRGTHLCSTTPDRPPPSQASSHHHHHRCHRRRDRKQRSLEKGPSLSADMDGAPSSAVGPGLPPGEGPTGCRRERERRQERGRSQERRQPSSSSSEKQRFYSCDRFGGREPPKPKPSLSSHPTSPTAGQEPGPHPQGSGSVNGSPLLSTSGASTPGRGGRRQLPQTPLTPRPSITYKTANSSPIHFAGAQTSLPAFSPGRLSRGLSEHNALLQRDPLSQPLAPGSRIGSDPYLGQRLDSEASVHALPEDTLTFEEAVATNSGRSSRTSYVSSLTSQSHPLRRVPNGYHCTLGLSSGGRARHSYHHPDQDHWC
Type N calcium channel, sequence (P54289 947-1103): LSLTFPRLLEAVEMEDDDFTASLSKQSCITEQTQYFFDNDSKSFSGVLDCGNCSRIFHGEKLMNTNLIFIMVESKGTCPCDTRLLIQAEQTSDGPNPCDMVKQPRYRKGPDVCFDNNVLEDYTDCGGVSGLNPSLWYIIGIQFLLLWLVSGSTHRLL
Type N calcium channel, sequence (P54284 whole entry, further chain): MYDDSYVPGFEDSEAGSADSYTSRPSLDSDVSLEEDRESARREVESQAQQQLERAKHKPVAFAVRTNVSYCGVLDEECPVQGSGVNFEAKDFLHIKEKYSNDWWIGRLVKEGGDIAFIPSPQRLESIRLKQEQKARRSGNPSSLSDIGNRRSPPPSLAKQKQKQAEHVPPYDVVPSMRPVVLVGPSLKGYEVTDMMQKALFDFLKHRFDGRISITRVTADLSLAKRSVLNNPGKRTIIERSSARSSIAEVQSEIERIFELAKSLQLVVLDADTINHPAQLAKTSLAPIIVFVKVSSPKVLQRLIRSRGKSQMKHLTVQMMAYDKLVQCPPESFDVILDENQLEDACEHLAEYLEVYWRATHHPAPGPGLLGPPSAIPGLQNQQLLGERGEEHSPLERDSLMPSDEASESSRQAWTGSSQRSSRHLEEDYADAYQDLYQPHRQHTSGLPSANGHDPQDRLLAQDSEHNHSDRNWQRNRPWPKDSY
Description: as §1

[3] = test system: glutamate (NMDA agonist site); assay: NovaScreen receptor binding panel; settings: 10 μM; <50% = marginal or no activity
Description: as §1

H1 histamine = H1 histamine (Homo sapiens, UniProt P35367); assay: NovaScreen receptor binding panel; settings: 10 μM; <50% = marginal or no activity
Description: as §1

serotonin = assay: NovaScreen receptor binding panel; settings: 10 μM, average of duplicate tubes
Description: as §1

chloride channel = assay: NovaScreen receptor binding panel; settings: 10 μM; <50% = marginal or no activity
Description: as §1

thromboxane A2 = thromboxane A2 (Homo sapiens, UniProt P21731); assay: NovaScreen receptor binding panel; settings: 10 μM; <50% = marginal or no activity
thromboxane A2, sequence (P21731 whole entry): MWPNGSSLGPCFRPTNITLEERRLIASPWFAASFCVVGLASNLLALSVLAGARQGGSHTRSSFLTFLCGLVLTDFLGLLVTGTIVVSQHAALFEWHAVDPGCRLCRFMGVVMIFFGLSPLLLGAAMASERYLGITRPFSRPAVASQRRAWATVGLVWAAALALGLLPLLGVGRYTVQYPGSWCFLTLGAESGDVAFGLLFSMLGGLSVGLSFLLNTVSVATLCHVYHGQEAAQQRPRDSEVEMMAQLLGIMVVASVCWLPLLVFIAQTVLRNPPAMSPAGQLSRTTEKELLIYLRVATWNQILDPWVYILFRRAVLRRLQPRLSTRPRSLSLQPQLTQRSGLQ
Description: as §1

muscarinic = assay: NovaScreen receptor binding panel; settings: 10 μM, average of duplicate tubes
Description: as §1

[4] = test system: voltage-insensitive potassium channel; assay: NovaScreen receptor binding panel; settings: 10 μM, average of duplicate tubes
Description: as §1

LPS-induced TNF release = assay: Conditioning (CNI-1493 with bell ringing), LPS-induced TNF release, L929 assay; format: in vivo, Mice; settings: CNI-1493 2.5 mg/kg i.p. with bell ringing vs. saline with bell ringing (Group 2 vs. Group 4; p=0.22); LPS 5 mg/kg i.p.
Description: Mice were grouped into four groups (n=4 animals/group). The conditioning training for Groups 2-4 consisted of morning and afternoon sessions. Mice in group 2 were together taken to a room, where each mouse was injected with CNI-1493 (2.5 mg/kg, i.p.). Simultaneously with the injection, each mouse was subjected to 45 seconds of bell ringing. Group 4 mice, similar to Group 2 mice, were subjected to control conditioning, whereby mice were injected with saline, instead of CNI-1493. Group 3 mice, like Group 2 mice, were subjected to saline injections but not bell ringing. This protocol was performed over a 10 day period, on days 1-4 and 8-10. On day 11, Group 1 mice were injected with CNI-1493 (2.5 mg/kg, i.p.). Also on day 11, 30 min after the Group 1 mice injections were performed, animals in all groups were injected with LPS (5 mg/kg, i.p.). After 2 hours, the mice were euthanized via CO2 inhalation, and blood was withdrawn. Serum TNF was determined by the L929 assay.

Muscarinic, M2 = assay: NovaScreen muscarinic receptor binding panel; settings: 10 μM, average of duplicate tubes
Description: (§2) Method of determining muscarinic receptor subtype. CNI-1493 was tested at a single concentration (10 μM) in a panel of muscarinic receptor binding assays by NovaScreen Biosciences Corporation (Hanover, Md.). Values were expressed as the percent inhibition of specific binding, and represented the average of duplicate tubes.

Muscarinic, M1 = assay: NovaScreen muscarinic receptor binding panel; settings: 10 μM, average of duplicate tubes
Description: as §2

[5] = biological target: Muscarinic, M1 (Human recombinant) (Homo sapiens, UniProt P11229); assay: NovaScreen muscarinic receptor binding panel; settings: 10 μM, average of duplicate tubes
Description: as §2

[6] = biological target: T1, Muscarinic, M5 (Human recombinant) (Homo sapiens, UniProt P08912); assay: NovaScreen muscarinic receptor binding panel; settings: 10 μM, average of duplicate tubes
T1 construct: NovaScreen Biosciences Corporation (contract laboratory that ran the assay)
Description: as §2

[7] = biological target: T2, Muscarinic, M3 (Human recombinant) (Homo sapiens, UniProt P20309); assay: NovaScreen muscarinic receptor binding panel; settings: 10 μM, average of duplicate tubes
T2 construct: NovaScreen Biosciences Corporation (contract laboratory that ran the assay)
T2 sequence (P20309 whole entry): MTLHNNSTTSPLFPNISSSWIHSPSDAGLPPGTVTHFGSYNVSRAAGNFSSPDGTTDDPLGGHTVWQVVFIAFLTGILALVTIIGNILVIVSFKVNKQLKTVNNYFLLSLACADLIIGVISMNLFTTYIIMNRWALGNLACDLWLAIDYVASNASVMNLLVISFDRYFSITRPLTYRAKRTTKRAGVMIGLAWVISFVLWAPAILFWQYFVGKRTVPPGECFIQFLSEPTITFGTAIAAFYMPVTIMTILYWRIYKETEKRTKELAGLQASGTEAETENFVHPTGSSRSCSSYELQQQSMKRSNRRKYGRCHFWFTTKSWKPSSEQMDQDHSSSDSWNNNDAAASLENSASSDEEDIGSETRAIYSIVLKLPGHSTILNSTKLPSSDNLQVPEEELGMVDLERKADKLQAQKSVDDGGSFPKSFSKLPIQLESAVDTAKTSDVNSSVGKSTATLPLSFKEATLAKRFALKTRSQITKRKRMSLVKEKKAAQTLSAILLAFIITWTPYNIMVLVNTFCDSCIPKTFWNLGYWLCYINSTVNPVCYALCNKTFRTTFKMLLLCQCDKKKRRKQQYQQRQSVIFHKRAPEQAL
Description: as §2

Muscarinic, M3 = assay: NovaScreen muscarinic receptor binding panel; settings: 10 μM, average of duplicate tubes
Description: as §2

[8] = biological target: T3, Muscarinic, M4 (Human recombinant) (Homo sapiens, UniProt P08173); assay: NovaScreen muscarinic receptor binding panel; settings: 10 μM, average of duplicate tubes
T3 construct: NovaScreen Biosciences Corporation (contract laboratory that ran the assay)
Description: as §2

[9] = biological target: Muscarinic, M2 (Human recombinant) (Homo sapiens, UniProt P08172); assay: NovaScreen muscarinic receptor binding panel; settings: 10 μM, average of duplicate tubes
Description: as §2

Q: Which “percent inhibition of specific binding” value (alpha 1 adrenergic) does the source give for CC(=NNC(=N)N)c1cc(NC(=O)CCCCCCCCC(=O)Nc2cc(C(C)=NNC(=N)N)cc(C(C)=NNC(=N)N)c2)cc(C(C)=NNC(=N)N)c1.Cl.Cl.Cl.Cl [CNI-1493, N,N′-bis(3,5-diacetylphenyl) decanediamide tetrakis (amidinohydrazone) tetrahydrochloride] here?
A: 89.7%

Q: And the “percent inhibition of receptor binding” value (epidermal growth factor)?
A: less than 50%

Q: What about the “percent inhibition of receptor binding” value (site 2 sodium) of the same compound?
A: less than 50%

Q: What about the “percent inhibition of receptor binding” value (leukotriene D4 and LTD4) of the same compound?
A: less than 50%

Q: What about the “percent inhibition of specific binding” value [1] of the same compound?
A: 58.5%

Q: And the “percent inhibition of receptor binding” value (NK1 neurokinin)?
A: less than 50%

Q: What about the “percent inhibition of specific binding” value [2] of the same compound?
A: 73.0%

Q: What about the “percent inhibition of receptor binding” value (dopamine) of the same compound?
A: less than 50%

Q: What about the “percent inhibition of receptor binding” value (vasopressin 1) of the same compound?
A: less than 50%

Q: And the “percent inhibition of receptor binding” value (site 1 sodium)?
A: less than 50%

Q: What about the “percent inhibition of receptor binding” value (Type L calcium channel) of the same compound?
A: less than 50%

Q: And the “percent inhibition of receptor binding” value (beta adrenergic)?
A: less than 50%

Q: What about the “percent inhibition of specific binding” value (Type N calcium channel) of the same compound?
A: 84.2%

Q: And the “percent inhibition of receptor binding” value [3]?
A: less than 50%

Q: What about the “percent inhibition of receptor binding” value (H1 histamine) of the same compound?
A: less than 50%

Q: What about the “percent inhibition of specific binding” value (serotonin) of the same compound?
A: 75.6%

Q: What about the “percent inhibition of receptor binding” value (chloride channel) of the same compound?
A: less than 50%

Q: What about the “percent inhibition of receptor binding” value (thromboxane A2) of the same compound?
A: less than 50%

Q: And the “percent inhibition of specific binding” value (muscarinic)?
A: 60.6%

Q: And the “percent inhibition of specific binding” value [4]?
A: 60.2%

Q: And the “reduction of mean LPS-induced TNF release by conditioning” value (LPS-induced TNF release)?
A: about 60%

Q: What about the Percent inhibition (Muscarinic, M2) of the same compound?
A: 85%

Q: And the Percent inhibition (Muscarinic, M1)?
A: 83%

Q: And the Percent inhibition [5]?
A: 72%

Q: And the Percent inhibition [6]?
A: 43%

Q: What about the Percent inhibition [7] of the same compound?
A: 40%

Q: What about the Percent inhibition (Muscarinic, M3) of the same compound?
A: 9%

Q: What about the Percent inhibition [8] of the same compound?
A: 57%

Q: What about the Percent inhibition [9] of the same compound?
A: 58%
